Structures can show the parent of a compound that is named as a salt.
Experiments:
[1] = tested on: NIH/3T3 cells transfected with control vector; test: NIH/3T3 mock cell proliferation assay (counter assay, CellTiter Glo); assay type: cell-based; settings: Mus musculus, NIH3T3, 72 h, 72-hr incubation, top concentration 30 μM, counter assay for general toxicity, read-out: NIH/3T3 MOCK CTG (IC50)
Method: NIH/3T3 Mock Cell Proliferation Assay
In day 1, 90 μL of cell suspension (NIH/3T3 cells transfected with the same control vector as in the above two proliferation assays) (total 30,000 cells per well in growth medium (DMEM containing 1% Glutamax, 10% FBS and 1% Pen/Strep)) was seeded in a 96-well plate and then incubated overnight at 37° C. and 5% CO2. In day 2, 10 μL of growth medium containing 10-fold stock solution of testing compound was added into cell cultures (9 dose points with 3× serial dilution, starting with 30 μM, 0.3% DMSO final). After 72-hr incubation at 37° C. and 5% CO2, in day 5 a volume of 50 μL CellTiter Glo (CTG) reagent was added into cell-containing 96-well plate and the plate was incubated at room temperature for 10 minutes before RLUs (relative light unit) were measured on a microplate reader with luminescence detection module.

[2] = target: T1, human FGFR3 wild type enzyme (cytoplasmic domain) (Homo sapiens, UniProt P22607); test: FGFR3 wild type mobility shift assay (enzymatic assay); assay type: biochemical; settings: 75 μM ATP, 50 minutes at 30° C, Caliper EZ reader II
T1 construct: human FGFR3 wild type enzyme (cytoplasmic domain, from Carna Biosciences); purchased Carna Biosciences
T1 sequence (P22607 397-806 limits assumed): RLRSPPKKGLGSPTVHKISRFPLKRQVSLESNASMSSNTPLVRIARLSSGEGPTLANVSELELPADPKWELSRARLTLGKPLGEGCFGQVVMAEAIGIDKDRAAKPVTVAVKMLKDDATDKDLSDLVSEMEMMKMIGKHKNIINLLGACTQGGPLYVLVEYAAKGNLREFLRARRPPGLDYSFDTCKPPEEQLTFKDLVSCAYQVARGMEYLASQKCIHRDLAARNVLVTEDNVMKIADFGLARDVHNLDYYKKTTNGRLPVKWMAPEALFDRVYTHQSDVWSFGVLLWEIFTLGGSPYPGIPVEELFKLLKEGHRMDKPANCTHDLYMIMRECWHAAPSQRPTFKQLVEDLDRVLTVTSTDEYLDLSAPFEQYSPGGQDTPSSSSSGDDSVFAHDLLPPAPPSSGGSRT
Description: FGFR3 Wild Type Mobility Shift Assay (Enzymatic Assay)

[3] = target: T2, NIH/3T3 cells overexpressing FGFR3 WT-TACC3 fusion protein (Homo sapiens, UniProt P22607); test: NIH/3T3 FGFR3 WT-TACC3 cell proliferation assay (CellTiter Glo); assay type: cell-based; settings: 72-hr incubation, top concentration 10 μM, read-out: NIH/3T3 FGFR3 WT-TACC3 CTG (IC50)
T2 construct: NIH/3T3 FGFR3 WT-TACC3 CTG (IC50); other: 72-hr incubation, CellTiter Glo, top concentration 10 μM; fused on or other part: Q9Y6A5 (Transforming acidic coiled-coil-containing protein 3)
T2 sequence (P22607 whole entry, change not shown, the tested form may be a part): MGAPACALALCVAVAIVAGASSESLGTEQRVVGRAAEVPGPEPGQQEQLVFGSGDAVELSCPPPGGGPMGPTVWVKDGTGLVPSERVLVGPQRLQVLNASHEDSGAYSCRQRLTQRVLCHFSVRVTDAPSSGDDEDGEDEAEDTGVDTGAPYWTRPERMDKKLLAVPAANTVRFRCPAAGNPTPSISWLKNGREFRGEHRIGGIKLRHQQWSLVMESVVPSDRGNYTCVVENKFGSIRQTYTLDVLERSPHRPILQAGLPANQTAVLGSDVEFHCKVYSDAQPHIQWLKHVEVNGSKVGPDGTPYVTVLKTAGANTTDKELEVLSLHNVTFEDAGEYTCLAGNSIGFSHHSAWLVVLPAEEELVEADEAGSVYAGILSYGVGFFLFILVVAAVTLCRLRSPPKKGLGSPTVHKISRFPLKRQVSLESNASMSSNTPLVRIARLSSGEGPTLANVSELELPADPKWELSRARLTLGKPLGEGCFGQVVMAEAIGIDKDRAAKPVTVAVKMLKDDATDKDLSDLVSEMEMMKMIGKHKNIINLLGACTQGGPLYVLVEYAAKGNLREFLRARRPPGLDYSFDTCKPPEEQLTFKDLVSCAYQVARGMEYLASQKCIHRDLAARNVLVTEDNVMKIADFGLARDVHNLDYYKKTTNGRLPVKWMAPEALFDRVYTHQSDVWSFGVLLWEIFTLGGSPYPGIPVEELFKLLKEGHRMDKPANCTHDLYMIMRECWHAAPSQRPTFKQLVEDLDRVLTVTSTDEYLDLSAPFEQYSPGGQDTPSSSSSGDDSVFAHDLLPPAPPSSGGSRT
Method: NIH/3T3 FGFR3 WT-TACC3 Cell Proliferation Assay
In day 1, 90 μL of cell suspension (NIH/3T3 cells overexpressing FGFR3 WT-TACC3 fusion protein) (total 30,000 cells per well in growth medium (DMEM containing 1% Glutamax, 10% FBS and 1% Pen/Strep)) was seeded in a 96-well plate and then incubated overnight at 37° C. and 5% CO2. […] After 72-hr incubation at 37° C. and 5% CO2, in day 5 a volume of 50 μL CellTiter Glo (CTG) reagent was added into cell-containing 96-well plate and the plate was incubated at room temperature for 10 minutes before RLUs (relative light unit) were measured on a microplate reader with luminescence detection module.

SMILES	IC50 [2]	GI50 [3]	IC50 [1]
CC(C)C(Nc1c(-c2nc3cnc(N4CCN(C)CC4)cc3[nH]2)c(=O)[nH]c2cn(C)nc12)c1ncccn1 (single isomer, unassigned) [Compound 23, (S*)-2-methyl-7-((2-methyl-1-(pyrimidin-2-yl)propyl)amino)-6-(6-(4-methylpiperazin-1-yl)-1H-imidazo[4,5-c]pyridin-2-yl)-2H-pyrazolo[4,3-b]pyridin-5(4H)-one]	0.000979 µM	0.0346 µM	0.266 µM
CCn1cc2[nH]c(=O)c(-c3nc4cc(C)c(N5CCOCC5)cc4[nH]3)c(N[C@@H](C)c3ncccn3)c2n1 [Compound 5, (S)-2-ethyl-6-(5-methyl-6-morpholino-1H-benzo[d]imidazol-2-yl)-7-((1-(pyrimidin-2-yl)-ethyl)amino)-2,4-dihydro-5H-pyrazolo[4,3-b]pyridin-5-one]	0.00178 µM	0.0197 µM	1.05 µM
CC(Nc1c(-c2nc3cc(C(F)(F)F)c(N4CCOCC4)cc3[nH]2)c(=O)[nH]c2cn(C)nc12)c1ncccn1 (single isomer, unassigned) [Compound 21, (R*)-2-methyl-6-(6-morpholino-5-(trifluoromethyl)-1H-benzo[d]imidazol-2-yl)-7-((1-(pyrimidin-2-yl)ethyl)amino)-2H-pyrazolo[4,3-b]pyridin-5(4H)-one]	0.00371 µM	0.0175 µM	5.9 µM
COCC(Nc1c(-c2nc3c(F)cc(N4CCOCC4)cc3[nH]2)c(=O)[nH]c2cn(C)nc12)c1ncccn1 (single isomer, unassigned) [Compound 29, (S*)-6-(4-fluoro-6-morpholino-1H-benzo[d]imidazol-2-yl)-7-((2-methoxy-1-(pyrimidin-2-yl)ethyl)amino)-2-methyl-2H-pyrazolo[4,3-b]pyridin-5(4H)-one]	0.00856 µM	0.0983 µM	1.53 µM
C[C@H](Nc1c(-c2nc3ccc(N4CCN(C)CC4)cc3[nH]2)c(=O)[nH]c2cn(C)nc12)c1ccccc1 [Compound 18, (S)-2-Methyl-6-(6-(4-methylpiperazin-1-yl)-1H-benzo[d]imidazol-2-yl)-7-((1-phenylethyl)amino)-2H-pyrazolo[4,3-b]pyridin-5(4H)-one]	0.00202 µM	0.0743 µM	0.68 µM
C[C@H](Nc1c(-c2nc3ccc(C4CCOCC4)c(F)c3[nH]2)c(=O)[nH]c2cn(C)nc12)c1ncccn1 [Compound 13, (S)-6-(7-fluoro-6-(tetrahydro-2H-pyran-4-yl)-1H-benzo[d]imidazol-2-yl)-2-methyl-7-((1-(pyrimidin-2-yl)ethyl)amino)-2H-pyrazolo[4,3-b]pyridin-5(4H)-one]	0.00115 µM	0.0221 µM	2.1 µM
CCn1cc2[nH]c(=O)c(-c3nc4c(F)cc(N5CC(OC)C5)cc4[nH]3)c(N[C@@H](C)c3ncccn3)c2n1 [Compound 49, (S)-2-ethyl-6-(4-fluoro-6-(3-methoxyazetidin-1-yl)-1H-benzo[d]imidazol-2-yl)-7-((1-(pyrimidin-2-yl)ethyl)amino)-2H-pyrazolo[4,3-b]pyridin-5(4H)-one]	0.00251 µM	0.0281 µM	0.46 µM
Cc1c(N2CCOCC2)ccc2nc(-c3c(NC(C)c4ncccn4)c4nn(C)cc4[nH]c3=O)[nH]c12 (single isomer, unassigned) [Compound 28, (S*)-2-methyl-6-(7-methyl-6-morpholino-1H-benzo[d]imidazol-2-yl)-7-((1-(pyrimidin-2-yl)ethyl)amino)-2H-pyrazolo[4,3-b]pyridin-5(4H)-one]	0.000939 µM	0.01 µM	2.07 µM
CC(Nc1c(-c2nc3ccc(N4CCCCC4)cc3[nH]2)c(=O)[nH]c2cn(C)nc12)c1ncccn1 (single isomer, unassigned) [Compound 34, (S*)-2-methyl-6-(6-(piperidin-1-yl)-1H-benzo[d]imidazol-2-yl)-7-((1-(pyrimidin-2-yl)-ethyl)amino)-2H-pyrazolo[4,3-b]pyridin-5(4H)-one]	0.00122 µM	0.0233 µM	0.734 µM
C[C@@H](Nc1c(-c2nc3ccc(N4CCN(C)CC4)cc3[nH]2)c(=O)[nH]c2cn(C)nc12)c1ncccc1C(F)(F)F (single isomer, unassigned) [Compound 32, (R*)-2-methyl-6-(6-(4-methylpiperazin-1-yl)-1H-benzo[d]imidazol-2-yl)-7-((1-(3-(trifluoromethyl)pyridin-2-yl)ethyl)amino)-2H-pyrazolo[4,3-b]pyridin-5(4H)-one 0.2 formate]	0.00429 µM	0.195 µM	4.23 µM
CCn1cc2[nH]c(=O)c(-c3nc4ccc(N5CCOCC5)cc4[nH]3)c(NC(C)c3cocn3)c2n1 (single isomer, unassigned) [Compound 4A, (S*)-2-ethyl-6-(6-morpholino-1H-benzo[d]imidazol-2-yl)-7-((1-(oxazol-4-yl)ethyl)amino)-2H-pyrazolo[4,3-b]pyridin-5(4H)-one]	0.00377 µM	0.0261 µM	0.288 µM

Stronger by IC50 [2], values ahead:

IC50 [2]	GI50 [3]	SMILES	IC50 [1]
0.000903 µM	0.0213 µM	Cc1cc2nc(-c3c(N[C@@H](C)c4ncccn4)c4nn(C)cc4[nH]c3=O)[nH]c2cc1C(=O)N1CCCC1 [Compound 2]	0.998 µM
0.000891 µM	0.0132 µM	CCn1cc2[nH]c(=O)c(-c3nc4ccc(N5CCOCC5)cc4[nH]3)c(N[C@@H](C)c3ncccn3)c2n1 [Compound 46, (S)-2-ethyl-6-(6-morpholino-1H-benzo[d]imidazol-2-yl)-7-((1-(pyrimidin-2-yl)ethyl)-amino)-2H-pyrazolo[4,3-b]pyridin-5(4H)-one]	1.07 µM
0.000788 µM	0.0446 µM	COc1cc(N2CCOCC2)cc2[nH]c(-c3c(NC(C)c4ncccn4)c4nn(C)cc4[nH]c3=O)nc12 (single isomer, unassigned) [Compound 51, (S*)-6-(4-methoxy-6-morpholino-1H-benzo[d]imidazol-2-yl)-2-methyl-7-((1-(pyrimidin-2-yl)ethyl)amino)-2,4-dihydro-5H-pyrazolo[4,3-b]pyridin-5-one]	1.16 µM
0.000738 µM	0.00904 µM	CCn1cc2[nH]c(=O)c(-c3nc4c(F)cc(N5CCN(C)CC5)cc4[nH]3)c(N[C@@H](C)c3ncccn3)c2n1 [Compound 48, (S)-2-ethyl-6-(4-fluoro-6-(4-methylpiperazin-1-yl)-1H-benzo[d]imidazol-2-yl)-7-((1-(pyrimidin-2-yl)ethyl)amino)-2H-pyrazolo[4,3-b]pyridin-5(4H)-one]	0.352 µM
0.00061 µM	0.0999 µM	C[C@H](Nc1c(-c2nc3ccc(N4CCCCC4=O)c(F)c3[nH]2)c(=O)[nH]c2cn(C)nc12)c1ncccn1 [Compound 27, (S)-6-(7-fluoro-6-(2-oxopiperidin-1-yl)-1H-benzo[d]imidazol-2-yl)-2-methyl-7-((1-(pyrimidin-2-yl)ethyl)amino)-2H-pyrazolo[4,3-b]pyridin-5(4H)-one]	1.37 µM
0.000376 µM	0.0181 µM	CC(Nc1c(-c2nc3ccc(C4CCOCC4)cc3[nH]2)c(=O)[nH]c2cn(C)nc12)c1ncccn1 (single isomer, unassigned) [Compound 22, (S*)-2-methyl-7-((1-(pyrimidin-2-yl)ethyl)amino)-6-(6-(tetrahydro-2H-pyran-4-yl)-1H-benzo[d]imidazol-2-yl)-2H-pyrazolo[4,3-b]pyridin-5(4H)-one]	1.08 µM

Reference: patent publication US11691970B2, “Pyrazolopyridinone compounds” (Janssen Pharmaceutica NV, priority 2017, dated 2023)
